Experimental findings from the SangsterLogP compilation are described below.

Test in data set [1]: not given
The source holds these as a separate data set.

Data set [2] is described as follows: method code SF-CR+AS, from DOI: 10.1007/bf00500994, PMID: 4267539. Particulars: pH 7.4.
Test in data set [3]: not given
This is another data set of the same source.

Data set [4] is described as follows: method code SF, from DOI: 10.1515/znc-1979-1128. Particulars: pH 7.4.
Test in data set [5]: not given
This is another data set of the same source.

The nature of data set [6]: method code SF-GLC, from DOI: 10.1016/0166-445x(88)90052-5.
Data set [7] can be described thus: method code SF, from DOI: 10.1016/0006-2952(91)90449-f, PMID: 1930261. The following applies: pH 2.0.
Data set [8] is described as follows: method code SF-AS, from DOI: 10.1002/etc.5620181211.
Data set [9] can be described thus: method code SF-HPLC, from DOI: 10.1021/jm00169a024, PMID: 2194033. The following applies: pH 7.4.
Test in data set [10]: not given
This is another data set of the same source.

The nature of data set [11]: method code SF-GLC, from DOI: 10.1002/etc.5620080910.
Test in data set [12]: not given
This is another data set of the same source.

Test in data set [13]: not given
The source holds these as a separate data set.

A short description of data set [14]: method code SF-RC, from DOI: 10.1016/s0969-8051(01)00233-5, PMID: 11518650.
Data set [15] in a line: method code HPLC, from DOI: 10.1016/j.ejmech.2015.05.022, PMID: 26005028. The following applies: pH 7.1.
Data set [16] is described as follows: method code SF-AS, from DOI: 10.1016/j.ejmech.2011.02.056, PMID: 21420207.
A short description of data set [17]: method code SF-HPLC, from DOI: 10.1016/0045-6535(86)90532-1. The following applies: pH 6.5.
Test in data set [18]: not given
This is another data set of the same source.

Data set [19] is described as follows: method code SF-AS, from DOI: 10.1016/0041-008x(67)90079-8.
A short description of data set [20]: method code SF-GLC, from DOI: 10.1002/jps.2600620103, PMID: 4734195.
Data set [21] in a line: from Wang, L.; Xu, L.; Xu, O.; Tian, L.; Zheng, Z. (1989). Simultaneous determination of partition coefficients and acid dissociation constants of some organic dibasic acids and diacidic bases in the ….
Data set [22] in a line: method code HPLC, from DOI: 10.1016/j.bmcl.2004.01.062, PMID: 15026043. Particulars: pH 5.5.
Test in data set [23]: not given
The source holds these as a separate data set.

Test in data set [24]: not given
The source holds these as a separate data set.

A short description of data set [25]: method code SF-AS, from DOI: 10.1111/j.2042-7158.1989.tb06480.x, PMID: 2570831. The following applies: pH 7.4.
Data set [26] in a line: method code SF-AS, from DOI: 10.1248/cpb.40.925.
Test in data set [27]: not given
This is another data set of the same source.

Test in data set [28]: not given
This is another data set of the same source.

The nature of data set [29]: method code SF-AS, from DOI: 10.1002/jps.2600710122.
Data set [30] is described as follows: method code SF-AS, from DOI: 10.1016/0378-5173(80)90061-7.
Data set [31] is described as follows: method code SF-AS, from Lee, B.; Shin, J.; Lim, M.; Jang, T.; Park, J.; Kim, K.; Kang, W. (1997). Partition Property of 5-Nitrothiopyrimidine Nucleoside. Bull Korean Chem Soc, 18(7)734-736. The following applies: pH 7.0.
Test in data set [32]: not given
This is another data set of the same source.

A short description of data set [33]: method code SF-AS, from DOI: 10.1021/jm0104926, PMID: 11960499.
Test in data set [34]: not given
The source holds these as a separate data set.

Test in data set [35]: not given
This is another data set of the same source.

What is called logP is a log measure of how a compound divides between an organic and an aqueous phase. The low end stands for lower lipophilicity, the high end for higher lipophilicity. Consider `CCC#N`, for which the logP worked out at 0.1.

In the case of `O=Cc1ccncc1`, the logP in data set [1] turned out to be 0.23. Usually logD stands for lipophilicity at a set pH, counting ionised and neutral species. In data set [2], `OCC(Cl)(Cl)Cl` returned a log distribution coefficient (logD) of 1.42. With `CCCC(C)O` (centres undefined), the logP in data set [3] stood at 1.34. `CC1=C(C)C(O)N(c2ccc(C)c(C)c2)C1=O` (centres undefined) came in with a logD in data set [4] of 2.36. On to `C1CCCC1`, for which the logP in data set [5] came to 2.8.

Consider `CCCCC1CO1` (centres undefined), for which the lipophilicity (logP) in [6] is 1.95.

`CN1C(=O)NC(=O)C(=O)C1=O` registered a logD in [7] of -1.04. As for `C(=C\c1ccccn1)/c1ccccc1`, the log partition coefficient (logP) in [8] is 1.96. `CCN1CC(C(O)[C@H](CC2CCCCC2)NC(=O)[C@H](Cc2cnc[nH]2)NC(=O)[C@@H](CC(=O)N(C)CCOC)Cc2ccccc2)OC1=O` (some centres undefined) registered a logD in [9] of 2.45. `C1OC1C1CO1` (centres undefined) came in with a logP in data set [6] of -0.28.

As for `ClC(Cl)Br`, the logP in data set [10] was determined as 2.1.

In data set [2], `O=CC(Cl)(Cl)Cl` registered a logD of 1.61. In data set [11], `O=[N+]([O-])c1c(Cl)cc(Cl)cc1Cl` had a logP of 3.69. For `Nc1c([N+](=O)[O-])ccc2ncccc12`, in [12], the logP came out at 1.61. Consider `C=CCBr`, for which the lipophilicity (logP) in [13] amounted to 1.9.

Compound `CCN1CC(C(O)[C@H](CC2CCCCC2)NC(=O)[C@H](Cc2cnc[nH]2)NC(=O)[C@@H](CC(=O)N(C)CCOCOC)Cc2ccccc2)OC1=O` (some centres undefined) gave a logD in data set [9] of 2.49. `CN(C)CCF` yielded a lipophilicity (logP) in data set [14] of 0.36.

`CCCCCCNC(=O)CBr` returned a log distribution coefficient (logD) in [15] of 2.18. On to `CCCCCCCC(=O)N[C@H]1C[C@H](O[C@H]2C[C@](O)(C(=O)CO)Cc3c(O)c4c(c(O)c32)C(=O)c2c(OC)cccc2C4=O)O[C@@H](C)[C@H]1O`, for which, in data set [16], the logP was 1.81. Turning to `CCCCCCCCCCCC(=O)N[C@H]1C[C@H](O[C@H]2C[C@](O)(C(=O)CO)Cc3c(O)c4c(c(O)c32)C(=O)c2c(OC)cccc2C4=O)O[C@@H](C)[C@H]1O`, the logP in data set [16] is 1.96. In the case of `CCCCNC(=S)NCCCC`, in [17], the logD was found to be 2.75. For `ClC(Cl)(Cl)Cl`, in [18], the logP was 2.59. In turn, `Clc1cc(Cl)c(Cl)nc1Cl` returned a logP in data set [19] of 3.32. `Clc1ccncc1` gave a logP in [1] of 1.37. In [20], `CC(O)C(F)(F)F` (centres undefined) displayed a logP of 0.71. Consider `Nc1cccc(C(=O)O)c1`, for which, in data set [21], the logP amounted to 0.65. In data set [13], `CC(=O)OCCCCOC(C)=O` yielded a lipophilicity (logP) of 0.01. In the case of `CN(C)C(=O)Oc1ccc(CC(NC(=O)C2N(S(=O)(=O)c3cnn(C)c3)CSC2(C)C)C(=O)OCC(C)(C)C)cc1` (centres undefined), the logD in data set [22] was 3.42. In turn, `CCCC` returned a logP in data set [18] of 2.74. In data set [23], `CC(C)=O` showed a logP of -0.17. For `COc1cc(NCc2ccc3nc(N)nc(N)c3c2C)cc(OC)c1OC`, in data set [24] (pH 13.0), the logD turned out to be 2.55.

`Nc1ncnc2[nH]cnc12` returned a log distribution coefficient (logD) in [25] of -0.05. `CCN1CC(C(O)[C@H](CC2CCCCC2)NC(=O)[C@H](Cc2cnc[nH]2)NC(=O)[C@@H](Cc2ccc(OC)cc2)NC(=O)N2CCOCC2)OC1=O` (some centres undefined) gave a logD in data set [9] of 2.11. `COC(=O)c1ccoc1`: in data set [26], the log partition coefficient (logP) turned out to be 1.28. In data set [24], `O=c1[nH]cnc2nc[nH]c12` registered a lipophilicity (logP) of -0.96. In the case of `Clc1ccc(Cl)nc1`, in data set [19], the logP was found to be 2.4. In [7], `CN1C(=O)C(=O)C(=O)N(C)C1=O` yielded a pH-dependent lipophilicity (logD) of -0.57.

In the case of `ClC(Br)Br`, the lipophilicity (logP) in [10] is 2.24. Regarding `CC(C)OC(=O)C(Cc1ccc(OC(=O)N(C)C)cc1)NC(=O)C1N(S(=O)(=O)c2cnn(C)c2)CSC1(C)C` (centres undefined), the logD in data set [22] amounted to 2.46. As for `CCOC(C)=O`, the log partition coefficient (logP) in data set [27] is 0.53.

Regarding `C=CCCCCCC`, the lipophilicity (logP) in [28] was 4.72. In the case of `CC(=O)Nc1n[nH]c(NC(C)=O)n1`, the logP in data set [29] is -1.01. As to `Cn1cnc2c(N)ncnc21`, the logD in data set [25] is -0.03.

In turn, `Cn1cccc1` returned a logP in data set [26] of 1.15. Consider `O=C1CCCO1`, for which the logP in data set [30] is -0.31.

`CCC(C)O` (centres undefined) displayed a logP in data set [3] of 0.81.

Turning to `Nc1cccnc1Cl`, the logP in data set [8] came to 0.04. The compound `COC(=O)CBr` came in with a logD in data set [15] of 0.77. The compound `O=c1[nH]cc([N+](=O)[O-])c(=O)[nH]1` returned a logD in data set [31] of -1.38. As to `O=C(O)CCC(=O)O`, in data set [21], the logP is -0.61. In the case of `Fc1ccccc1`, in [23], the logP turned out to be 2.01. Consider `OCC(Cl)Cl`, for which the log partition coefficient (logP) in data set [20] was determined as 0.37. As to `Cc1c(-c2cnccn2)ssc1=S`, in data set [32], the logP worked out at 2.79. `CCCCCCCCC(C)=O` registered a lipophilicity (logP) in data set [5] of 3.78. In data set [17], `S=C1NCCN1` registered a logD of -0.66. On to `Nc1ccc([N+](=O)[O-])cn1`, for which the lipophilicity (logP) in data set [12] worked out at 0.65. In turn, `O=[N+]([O-])c1cc(Cl)c(Cl)c(Cl)c1Cl` registered a logP in data set [11] of 3.93. `NC(=O)c1cssc1=S` gave a log partition coefficient (logP) in data set [32] of 0.3. Regarding `FC(Cl)C(F)(F)C1(Br)N=N1` (centres undefined), the log partition coefficient (logP) in data set [33] amounted to 2.18.

`Nc1nc(NC(=O)C(F)(F)C(F)(F)C(F)(F)F)n[nH]1` displayed a logP in [29] of 1.54. In the case of `On1ccccc1=S`, in data set [34], the logP was determined as 0.4. As for `Cc1cc(O)no1`, the logP in data set [35] was determined as 0.26. In the case of `FC(F)(C(Cl)Br)C1N=N1` (centres undefined), the lipophilicity (logP) in [33] was determined as 1.9. Consider `c1ncncn1`, for which the logD in [4] was -0.73. For `CCCCCBr`, the logP in data set [28] came to 3.32. `CCN(CC)CCF` displayed a logP in data set [14] of 0.94. The compound `O=C(O)c1ccccn1` had a logP in [34] of -1.

In data set [16], `CCCCCCCCCCCCCCCC(=O)N[C@H]1C[C@H](O[C@H]2C[C@](O)(C(=O)CO)Cc3c(O)c4c(c(O)c32)C(=O)c2c(OC)cccc2C4=O)O[C@@H](C)[C@H]1O` returned a logP of 2.19. `CCN(CC)C(=O)SCc1ccc(Cl)cc1` had a logP in data set [35] of 3.78. For the compound `O=[N+]([O-])c1c[nH]c(=S)[nH]c1=S`, the logD in data set [31] came out at 0.52. `Nc1ccc(S(=O)(=O)NC(=O)c2ccccc2)cc1` showed a logP of 1.46.

In data set [30], `COC(=O)CCCO` gave a logP of -0.06.

In data set [27], `CCCCOC(C)=O` yielded a logP of 1.69.
